# Type: physicochemical
# Excerpt: The polymer coated glass samplers (POG) and the organic rapid equilibrating (ORE) samplers, 10 and 20, both consisting of a thin film (on the order of ˜1-2 μm) of EVA, were calibrated by experimental determination of EVA-Water partition coefficients and sampling rates. The ORE is comprised of a 1.4 μm EVA coating on a 5.1×7.6 cm titanium plate, while the POG utilizes a thin-film of EVA on a glass fiber filter.
# A closed system experiment was used to calibrate the POG and ORE devices. Sampling rates and equilibration times were determined for fourteen PBDE congeners. EVA-Water partitioning coefficients (KEVA-W) were experimentally determined for 5 BDE congeners. A Log KEVA-W−Log KOW (Octanol-Water partitioning coefficient) plot was constructed and used to define Log KEVA-W partitioning coefficients for the 14 BDE congeners examined. Values ranged from 6.39 to 10.6. The experimental design was successful in parameterizing the desired constants. In sum, both samplers were successfully calibrated.
# A dichloromethane rinsed 20 gallon fish tank was employed for the tank deployment experimental. Three POGs and three OREs were suspended from a stainless steel frame proximate the top of the tank.
# Once dry, the tank was filled with artificial seawater comprising sodium chloride, sodium bicarbonate, magnesium sulfate, and high purity Milli-Q water. A handheld multiparameter instrument (YSI-556) was used to confirm salinity (31 parts per thousand), dissolved oxygen (0.19 mM), and temperature (20° C.) prior to starting the experiment. The tank was fit with a plexiglass lid sealed with polytetrafluoroethylene (PTFE; i.e., Teflon®) and duct tape.
# The tank was spiked with 0.2 mL of the PBDE Predominant Congener Mixture in n-nonane from Cambridge Isotope laboratories and allowed to equilibrate for 48 hours. Samplers were removed from refrigeration and allowed to equilibrate to room temperature. 400 mL of water was taken to establish the initial concentration. Seven sets of three samplers were added to the tank. The tank was secured with a lid, PTFE and duct tape, as described above. Four hundred milliliter aliquots of tank water and one sampler set were removed at the following time intervals: 1 hr, 2 hrs, 6 hrs, 12 hrs, 3 days, 12 days, and 32 days. The tank was open to the air in the fume hood for less than 4 minutes during each sampling period. After removal, each sampler set was wrapped in pre-cleaned aluminum foil and placed frozen in an airtight bag at −20° C. until extraction and analysis. Water-side 400 mL aliquots were frozen at −20° C. until extraction and analysis.
# The POGs and OREs were extracted for analysis of PBDE concentration.
# Extracts were analyzed for BDE congeners 17, 28, 47, 66, 71, 85, 99, 100, 138, 153, 154, 183, 190, and 209 by gas chromatography-mass spectrometry (GC/MS). Masses 79 (PBDEs) and 414 (Mirex) were used for quantification with Masses 81 (PBDEs), 487, 486 (DecaBDE), and 412 (Mirex) acting as confirmation ions. Extracts were identified and quantified by comparison with known concentrations of prepared standard solutions.
# Sampling rates were calculated experimentally using Equation 2. The sampling rates varied between sampler types. The differences in sampling rates were likely due to variations in the thickness and heterogeneity versus homogeneity of the thin film coating on the respective plates. Sampling rates (RS(s)) were calculated at 1, 2, or 6 hrs depending upon the shape of the uptake curve.
Structure (SMILES),LOG KEVA-W (EVA-water partition coefficient) ORE,LOG KEVA-W (EVA-water partition coefficient) POG
Brc1ccc(Oc2ccccc2Br)c(Br)c1 [BDE 17],6.40 ± 0.08,6.01 ± 0.07
Brc1ccc(Oc2ccc(Br)cc2Br)cc1 [BDE 28],6.38 ± 0.10,5.90 ± 0.06
Brc1ccc(Oc2ccc(Br)cc2Br)c(Br)c1 [BDE 47],6.79 ± 0.10,6.43 ± 0.07
Brc1ccc(Oc2ccc(Br)c(Br)c2)c(Br)c1 [BDE 66],6.66 ± 0.11,6.25 ± 0.07
Brc1ccc(Oc2c(Br)cccc2Br)cc1Br [BDE 71],6.67 ± 0.02,6.24 ± 0.05

# Reference: patent US20110070597A1, “Thin-Film Passive Samplers for Detection of Hydrophobic Organic Contaminants and Estrogenicity in Various Environments” (UNIVERSITY OF CONNECTICUT, priority 2009, published 2011)
